The numbers were not newly measured in publication PMC10855781 (International Journal of Molecular Sciences, 2024), which cites them from elsewhere.

Data set [1] has as its system human colorectal adenocarcinoma (HT-29). Conditions: Table 2; ref [75]. The text has this: Table 2 Comparative study of cytotoxic effects and cardiotoxicity elicited by selected GnRH-based anthracycline conjugates. || Table 3 In vivo tumor growth inhibition of a few relevant Dau-GnRH-III conjugates. | column: Cytostatic Effect (IC50: μM) on HT-29 cells
Another data set concerns HT-29 human colon cancer. Conditions: SCID mice, single i.p. 2.5 mg/kg (4.43 μmol); ref [81]. The procedure:
Table 3 In vivo tumor growth inhibition of a few relevant Dau-GnRH-III conjugates. | column: HT-29 ^b s.c. SCID [%] || In another experiment, HT-29 human colon cancer was developed s.c. in immunodeficient SCID mice. Dau and two conjugates (with or without a GFLG spacer between the GnRH-III homing peptide and the payload) were used for the treatment. The first i.p. administrations were performed on day 13 after tumor inoculation. All the mice treated once with 2.5 mg/kg body weight (4.43 μmol) free Dau died within 10 days. In contrast, the conjugates at a dose of 15 mg Dau content/kg body weight (26.6 μmol) that refers to 52 mg/kg [^8Lys(Dau=Aoa)]-GnRH-III and 62.5 mg/kg [^8Lys(Dau=Aoa-GFLG)]-GnRH-III co ...

Data set [2] deals with human breast adenocarcinoma (MCF-7). Conditions: ref [75]. The text has this:
Table 2 Comparative study of cytotoxic effects and cardiotoxicity elicited by selected GnRH-based anthracycline conjugates. | column: IC50 Values (μM)

The subject of another data set is PANC-1 tumor. Particulars: ref [110]. The method, then: The in vivo tumor growth inhibitory effect of the conjugate and free Dau was investigated on s.c.-developed PANC-1 tumor-bearing SCID female mice. The free drug was applied once a week at a maximum tolerated dose of 1 mg/kg body weight (three treatments), while the conjugate was administered, on average, three times per a week either at a 2 mg/kg or 10 mg/kg dose, calculated as per the Dau content (eighteen treatments altogether). The first treatment was given on day 10 after tumor inoculation. After the third treatment with free Dau, the animals lost 20% of their weight; therefore, the mice i ...

Turning to `COc1cccc2c1C(=O)c1c(O)c3c(c(O)c1C2=O)C[C@@](O)(C(C)=O)C[C@@H]3O[C@H]1C[C@H](N)[C@H](O)[C@H](C)O1` [Dau, daunomycin], the results for the IC50 in data set [1] and in data set [2] were 300 ± 200 nM and 400 ± 100 nM, respectively. For the same compound, the “time within which all treated mice died” value in the data set with HT-29 human colon cancer is on record as at most 10 days. Further, the “decrease in liver weight” value in the data set on PANC-1 tumor (Dau 1 mg/kg once a week, three treatments) is 29.1%. Further, the body weight loss in the data set on PANC-1 tumor (after third treatment, 1 mg/kg once a week, sacrificed day 28) is listed as 20%.
